Source: patent publication US10577368B2 (The United States of America, as represented by the …, priority 2013, dated 2020)

Columns and labels:
hA3AR = hA3AR (Homo sapiens (Human), UniProt P0DMS8); experiment: Radioligand binding at hA3AR, CHO cell membranes, [125I]I-AB-MECA
hA2AAR = hA2AAR (Homo sapiens (Human), UniProt P29274); experiment: Radioligand binding at hA2AAR, HEK293 cell membranes, [3H]CGS21680; details: for inhibition at 10 µM: read-out: hA2AAR % inhibition; for hA2AAR % inhibition: inhibition of binding at 10 μM
hA1AR = hA1AR (Homo sapiens (Human), UniProt P30542); experiment: Radioligand binding at hA1AR, CHO cell membranes, [3H]R-PIA; details: for inhibition at 10 µM: read-out: hA1AR % inhibition; for hA1AR % inhibition: inhibition of binding at 10 μM
[1] = system: chronic constriction injury model of neuropathic pain; experiment: CCI model of neuropathic pain, reversal of mechano-allodynia; type: in vivo, mice; details: for Time of peak protection / Effect at 3 h (% ± SEM) / Max. effect Emax (% ± SEM): 3 μmol/kg p.o., mice; for Time of peak protection / Max. effect Emax (% ± SEM): ipsilateral hind paw; for Efficacy in reversing NP in vivo (of full reversal at peak effect): CCI model

Chain of hA2AAR (P29274 whole entry): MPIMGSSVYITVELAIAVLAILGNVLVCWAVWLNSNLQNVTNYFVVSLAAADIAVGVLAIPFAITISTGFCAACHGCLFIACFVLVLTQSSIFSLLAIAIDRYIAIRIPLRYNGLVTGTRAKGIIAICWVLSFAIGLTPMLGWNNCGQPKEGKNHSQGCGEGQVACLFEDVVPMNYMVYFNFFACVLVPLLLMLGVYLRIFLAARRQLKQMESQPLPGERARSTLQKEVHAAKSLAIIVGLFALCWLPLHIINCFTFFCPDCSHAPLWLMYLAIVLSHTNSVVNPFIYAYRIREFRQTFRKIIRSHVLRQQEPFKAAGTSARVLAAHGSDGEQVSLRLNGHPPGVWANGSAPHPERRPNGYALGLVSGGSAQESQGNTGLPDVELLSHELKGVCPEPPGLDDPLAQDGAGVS
Chain of hA3AR (P0DMS8 whole entry): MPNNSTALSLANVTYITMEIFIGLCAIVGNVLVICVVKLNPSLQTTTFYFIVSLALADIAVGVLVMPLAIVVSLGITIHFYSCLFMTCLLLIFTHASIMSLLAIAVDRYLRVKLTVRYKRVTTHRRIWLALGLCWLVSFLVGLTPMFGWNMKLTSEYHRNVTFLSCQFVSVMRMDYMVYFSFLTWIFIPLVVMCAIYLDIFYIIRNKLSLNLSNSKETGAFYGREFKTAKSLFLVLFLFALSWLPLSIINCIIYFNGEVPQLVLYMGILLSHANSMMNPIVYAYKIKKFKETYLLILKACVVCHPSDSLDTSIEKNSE
Chain of hA1AR (P30542 whole entry): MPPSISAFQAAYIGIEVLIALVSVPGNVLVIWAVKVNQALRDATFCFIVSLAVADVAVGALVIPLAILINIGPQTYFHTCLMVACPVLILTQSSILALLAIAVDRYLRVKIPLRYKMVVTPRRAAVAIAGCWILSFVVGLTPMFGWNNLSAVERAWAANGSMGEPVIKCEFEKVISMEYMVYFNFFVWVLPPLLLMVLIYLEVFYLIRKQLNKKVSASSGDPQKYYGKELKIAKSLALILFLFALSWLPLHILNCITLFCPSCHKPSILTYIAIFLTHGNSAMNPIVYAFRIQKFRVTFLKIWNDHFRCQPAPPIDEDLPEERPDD

Compound	Ki (hA3AR) [nM]	inhibition at 10 µM (hA2AAR) [%]	inhibition at 10 µM (hA1AR) [%]	Time of peak protection [1] [h]	further results
CNC(=O)[C@@]12C[C@@H]1[C@@H](n1cnc3c(NC4CC4c4cccc(C)c4)nc(C#Cc4ccccc4)nc31)[C@H](O)[C@@H]2O (mixture of isomers) [Compound 22, (1S,2R,3S,4R,5S)-2,3-Dihydroxy-N-methyl-4-(2-(phenylethynyl)-6-((2-(m-tolyl)cyclopropyl)amino)-9H-purin-9-yl)bicyclo[3.1.0]hexane-1-carboxamide]	17.6 ± 1.3				
CNC(=O)[C@@]12C[C@@H]1[C@@H](n1cnc3c(NC4CC4c4cccc(F)c4)nc(C#Cc4ccccc4)nc31)[C@H](O)[C@@H]2O (mixture of isomers) [Compound 23, (1S,2R,3S,4R,5S)-4-(6-((2-(3-Fluorophenyl)cyclopropyl)amino)-2-(phenylethynyl)-9H-purin-9-yl)-2,3-dihydroxy-N-methylbicyclo[3.1.0]hexane-1-carboxamide]	16.5 ± 1.9	1			
CNC(=O)[C@]12CC1[C@@H](n1cnc3c(NCc4cccc(Cl)c4)nc(I)nc31)[C@H](O)C2O (some centres unmarked) [Compound 116]					Ki (hA2AAR): > 10000 nM
CNC(=O)[C@@]12C[C@@H]1[C@@H](n1cnc3c(NC)nc(C#Cc4ccc(CO)cc4)nc31)[C@H](O)[C@@H]2O [Compound 31, (1S,2R,3S,4R,5S)-2,3-Dihydroxy-4-(2-((4-(hydroxymethyl)phenyl)ethynyl)-6-(methylamino)-9H-purin-9-yl)-N-methylbicyclo[3.1.0]hexane-1-carboxamide]		11 ± 7	16	1	
CNC(=O)[C@]12CC1[C@@H](n1cnc3c(NC)nc(-n4cc(-c5ccco5)nn4)nc31)[C@H](O)C2O (some centres unmarked) [Compound 107]	0.96 ± 0.09			1	Effect at 3 h (% ± SEM) [1]: 21 ± 7%; Max. effect Emax (% ± SEM) [1]: 65 ± 8%; hA2AAR % inhibition (hA2AAR): 51 ± 1%
CNC(=O)[C@@]12C[C@@H]1[C@@H](n1cnc3c(NC)nc(C#Cc4cccnn4)nc31)[C@H](O)[C@@H]2O [Compound 10, (1S,2R,3S,4R,5S)-2,3-Dihydroxy-N-methyl-4-(6-(methylamino)-2-(pyridazin-3-ylethynyl)-9H-purin-9-yl)bicyclo[3.1.0]hexane-1-carboxamide]		13 ± 8	11	0.5	Efficacy in reversing NP in vivo (of full reversal at peak effect) [1]: less than full efficacy
CNC(=O)[C@]12CC1[C@@H](n1cnc3c(NC)nc(-n4cc(-c5ccc(F)c(F)c5)nn4)nc31)[C@H](O)C2O (some centres unmarked) [Compound 102]				1	Effect at 3 h (% ± SEM) [1]: 8 ± 8%; Max. effect Emax (% ± SEM) [1]: 55 ± 6%; hA2AAR % inhibition (hA2AAR): 39 ± 4%
CNC(=O)[C@@]12C[C@@H]1[C@@H](n1cnc3c(NC)nc(C#Cc4cc(C)c(C)o4)nc31)[C@H](O)[C@@H]2O [Compound 29, (1S,2R,3S,4R,5S)-4-(2-((4,5-Dimethylfuran-2-yl)ethynyl)-6-(methylamino)-9H-purin-9-yl)-2,3-dihydroxy-N-methylbicyclo[3.1.0]hexane-1-carboxamide]		21 ± 3	15	1	
CNC(=O)[C@@]12C[C@@H]1[C@@H](n1cnc3c(NC4CC4c4ccc(F)c(F)c4)nc(C#Cc4ccccc4)nc31)[C@H](O)[C@@H]2O (mixture of isomers) [Compound 26, (1 S,2R,3S,4R,5S)-4-(6-((2-(3,4-Difluorophenyl)cyclopropyl)amino)-2-(phenylethynyl)-9H-purin-9-yl)-2,3-dihydroxy-N-methylbicyclo[3.1.0]hexane-1-carboxamide]	20.2 ± 2.1				
CNC(=O)[C@@]12C[C@@H]1[C@@H](n1cnc3c(NC)nc(C#CC4CC4)nc31)[C@H](O)[C@@H]2O [Compound 20, (1S,2R,3S,4R,5S)-4-(2-(Cyclopropylethynyl)-6-(methylamino)-9H-purin-9-yl)-2,3-dihydroxy-N-methylbicyclo[3.1.0]hexane-1-carboxamide]		15 ± 10	38		Efficacy in reversing NP in vivo (of full reversal at peak effect) [1]: 60-70%
CNC(=O)[C@]12CC1[C@@H](n1cnc3c(NC)nc(C#Cc4ccccn4)nc31)[C@H](O)C2O (some centres unmarked) [Compound 401, reference compound]					hA1AR % inhibition (hA1AR): (13% ± 8%); Efficacy in reversing NP in vivo (of full reversal at peak effect) [1]: low efficacy; hA2AAR % inhibition (hA2AAR): (13% ± 4%)
CNC(=O)[C@@]12C[C@@H]1[C@@H](n1cnc3c(NC)nc(C#Cc4cccc(C(F)(F)F)c4)nc31)C(O)C2O (stereo in doubt) [Compound 14, (1 S,2S,3R,4R,5S)-2,3-Dihydroxy-N-methyl-4-(6-(methylamino)-2-((3-(trifluoromethyl)phenyl)ethynyl)-9H-purin-9-yl)bicyclo[3.1.0]hexane-1-carboxamide]		12 ± 6	10	0.5 to 1	
CNC(=O)[C@]12CC1[C@@H](n1cnc3c(NCc4cccc(Cl)c4)nc(-n4cc(-c5ccc(Cl)s5)nn4)nc31)[C@H](O)C2O (some centres unmarked) [Compound 120]	11.7			0.5 to 4	Effect at 3 h (% ± SEM) [1]: 100%; Max. effect Emax (% ± SEM) [1]: 100%
CNC(=O)[C@@]12C[C@@H]1[C@@H](n1cnc3c(NC)nc(C#Cc4cccnc4)nc31)[C@H](O)[C@@H]2O [Compound 15, (1S,2R,3S,4R,5S)-2,3-Dihydroxy-N-methyl-4-(6-(methylamino)-2-(pyridin-3-ylethynyl)-9H-purin-9-yl)bicyclo[3.1.0]hexane-1-carboxamide]		12 ± 6	16 ± 10	0.5 to 2	Efficacy in reversing NP in vivo (of full reversal at peak effect) [1]: low efficacy
CNC(=O)[C@@]12C[C@@H]1[C@@H](n1cnc3c(NC4CC4c4cccc(Br)c4)nc(C#Cc4ccccc4)nc31)[C@H](O)[C@@H]2O (mixture of isomers) [Compound 25, (1S,2R,3S,4R,5S)-4-(6-((2-(3-Bromophenyl)cyclopropyl)amino)-2-(phenylethynyl)-9H-purin-9-yl)-2,3-dihydroxy-N-methylbicyclo[3.1.0]hexane-1-carboxamide]	14.5 ± 1				
CNC(=O)[C@]12CC1[C@@H](n1cnc3c(NC)nc(C#Cc4ccccc4)nc31)[C@H](O)C2O (some centres unmarked) [Compound 400, reference compound]				0.5 to 1	hA1AR % inhibition (hA1AR): (18% ± 8%); Effect at 3 h (% ± SEM) [1]: 5.0 ± 5.0%; Max. effect Emax (% ± SEM) [1]: 44.1 ± 9.9%; Efficacy in reversing NP in vivo (of full reversal at peak effect) [1]: ~30%; hA2AAR % inhibition (hA2AAR): (14% ± 7%)
CNC(=O)[C@@]12C[C@@H]1[C@@H](n1cnc3c(NC)nc(C#CC4CCCCC4)nc31)[C@H](O)[C@@H]2O [Compound 19, (1S,2R,3S,4R,5S)-4-(2-(Cyclohexylethynyl)-6-(methylamino)-9H-purin-9-yl)-2,3-dihydroxy-N-methylbicyclo[3.1.0]hexane-1-carboxamide]		45 ± 6	15	1 to 2	Max. effect Emax (% ± SEM) [1]: 64.1 ± 10.5%; Efficacy in reversing NP in vivo (of full reversal at peak effect) [1]: 60-70%
CNC(=O)[C@@]12C[C@@H]1[C@@H](n1cnc3c(NC4CC4c4cccc(Cl)c4)nc(C#Cc4ccccc4)nc31)[C@H](O)[C@@H]2O (mixture of isomers) [Compound 24, (1S,2R,3S,4R,5S)-4-(6-((2-(3-Chlorophenyl)cyclopropyl)amino)-2-(phenylethynyl)-9H-purin-9-yl)-2,3-dihydroxy-N-methylbicyclo[3.1.0]hexane-1-carboxamide]	11.2 ± 4.2				
CNC(=O)[C@]12CC1[C@@H](n1cnc3c(NCc4cccc(Cl)c4)nc(N=[N+]=[N-])nc31)[C@H](O)C2O (some centres unmarked) [Compound 124]	1.08 ± 0.75				Ki (hA2AAR): 2770 nM

Further lines, with some results ahead:

Ki (hA3AR) [nM]	inhibition at 10 µM (hA2AAR) [%]	inhibition at 10 µM (hA1AR) [%]	Compound	Time of peak protection [1] [h]	further results
1.22 ± 0.21			CCNc1nc(I)nc2c1ncn2[C@@H]1C2C[C@]2(C(=O)NC)C(O)[C@H]1O (some centres unmarked) [Compound 122]		hA2AAR % inhibition (hA2AAR): 11 ± 7%
	18 ± 3	13	CNC(=O)[C@@]12C[C@@H]1[C@@H](n1cnc3c(NC)nc(C#Cc4cc5ccccc5o4)nc31)[C@H](O)[C@@H]2O [Compound 33, (1S,2R,3S,4R,5S)-4-(2-(Benzofuran-2-ylethynyl)-6-(methylamino)-9H-purin-9-yl)-2,3-dihydroxy-N-methylbicyclo[3.1.0]hexane-1-carboxamide]	1	Max. effect Emax (% ± SEM) [1]: 87.4 ± 0.6%
0.6 ± 0.08			CCNc1nc(N=[N+]=[N-])nc2c1ncn2[C@@H]1C2C[C@]2(C(=O)NC)C(O)[C@H]1O (some centres unmarked) [Compound 123]		hA2AAR % inhibition (hA2AAR): 11 ± 6%
0.54 ± 0.1			CNC(=O)[C@]12CC1[C@@H](n1cnc3c(NC)nc(N=[N+]=[N-])nc31)[C@H](O)C2O (some centres unmarked) [Compound 113]		hA2AAR % inhibition (hA2AAR): 1 ± 1%
1.91 ± 0.85			CNC(=O)[C@]12CC1[C@@H](n1cnc3c(NC)nc(I)nc31)[C@H](O)C2O (some centres unmarked) [Compound 114]		
1.53 ± 0.45			CNC(=O)[C@]12CC1[C@@H](n1cnc3c(NC4CCC4)nc(I)nc31)[C@H](O)C2O (some centres unmarked) [Compound 118]		Ki (hA2AAR): > 10000 nM
0.85 ± 0.1			CNC(=O)[C@]12CC1[C@@H](n1cnc3c(NC4CCC4)nc(N=[N+]=[N-])nc31)[C@H](O)C2O (some centres unmarked) [Compound 115]		hA2AAR % inhibition (hA2AAR): 46%
	34 ± 7	15 ± 6	CNC(=O)[C@@]12C[C@@H]1[C@@H](n1cnc3c(C)nc(C#Cc4ccc(C(C)(C)C)cc4)nc31)C(O)C2O (stereo in doubt) [Compound 41, (1S,2S,3R,4R,5S)-4-(2-((4-(tert-butyl)phenyl)ethynyl)-6-methyl-9H-purin-9-yl)-2,3-dihydroxy-N-methylbicyclo[3.1.0]hexane-1-carboxamide]		
7.13			CNC(=O)[C@]12CC1[C@@H](n1cnc3c(NC4CCC4)nc(-n4cc(-c5ccc(Cl)s5)nn4)nc31)[C@H](O)C2O (some centres unmarked) [Compound 125]	0.5 to 3	Effect at 3 h (% ± SEM) [1]: 90%; Max. effect Emax (% ± SEM) [1]: 100%
